According to ChEMBL document CHEMBL1641556, “MDCK cell permeability characteristics of a sulfenamide prodrug: strategic implications in considering sulfenamide prodrugs for oral delivery of NH-acids” (Bioorg Med Chem Lett, 2011):

Experiments:
[1] = Hydrolytic stability of the compound assessed as half life at pH 6; type: physicochemical; details: buffer
[2] = Apparent permeability from basolateral to apical side of MDCK cells; type: ADME, cell-based, Canis lupus familiaris; details: dog
[3] = Apparent permeability from apical to basolateral side of MDCK cells; type: ADME, cell-based, Canis lupus familiaris; details: dog

t1/2 [1] [yr]	Papp B→A [2] [×10⁻⁶ cm/s]	Papp A→B [3] [×10⁻⁶ cm/s]	Compound
6.3			N[C@@H](CSNC(=O)c1ccccc1)C(=O)O
	10.6	9	CC(=O)NC[C@H]1CN(c2ccc(N3CCOCC3)c(F)c2)C(=O)O1 [LINEZOLID]
